“And” between values parts separate entries of the source, which are not always exact repeats. Equal values may be shown once. Inconclusive results and toxic doses are left out.
Test system: P388 leukemia ip, CD2F1 mice, survival T/C
Experiment: NCI In Vivo Anticancer Drug Screen. Data for tumor model P388 Leukemia (intraperitoneal) in CD2F1 (CDF1) mice
Details: endpoint: median survival time, higher = longer survival
Outline: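 Mice carrying the transplanted tumor received test compound or vehicle. Survival was recorded in each group, and the value is the treated-group measurement divided by that of the vehicle-treated control group.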

[1] = dose: 50.0 mg/kg/injection, schedule: Q01DX005 (ip), vehicle: saline with Tween-80
[2] = dose: 100.0 mg/kg/injection, schedule: Q01DX005 (ip), vehicle: saline with Tween-80
[3] = dose: 200.0 mg/kg/injection, schedule: Q01DX005 (ip), vehicle: saline with Tween-80

CCC1CC2CN(CCc3c([nH]c4ccccc34)C(C(=O)OC)(c3cc4c(cc3OC)N(C)C3C(O)(C(=O)OC)C(OC(C)=O)C5(CC)C=CCN6CCC43C65)C2)C1 (configuration not stated)
T/C (dose: 0.05 mg/kg/injection, schedule: Q01DX009 (ip), vehicle: Klucel (hydroxypropylcellulose) (HPC)): 123 % of control
T/C (dose: 0.06 mg/kg/injection, schedule: Q01DX009 (ip), vehicle: water): 124 % of control
T/C (dose: 0.25 mg/kg/injection, schedule: Q04DX003 (ip), vehicle: water): 150 % of control
T/C (dose: 0.4 mg/kg/injection, schedule: Q01DX009 (ip), vehicle: Klucel (hydroxypropylcellulose) (HPC)): 169 % of control
T/C (dose: 0.5 mg/kg/injection, schedule: Q04DX003 (ip), vehicle: water): 160 % of control
T/C (dose: 0.8 mg/kg/injection, schedule: Q01DX009 (ip), vehicle: Klucel (hydroxypropylcellulose) (HPC)): 169 % of control
T/C (dose: 1.0 mg/kg/injection, schedule: Q04DX003 (ip), vehicle: water): 223 % of control
T/C (dose: 2.0 mg/kg/injection, schedule: Q04DX003 (ip), vehicle: water): 232 % of control
T/C (dose: 4.0 mg/kg/injection, schedule: Q01DX009 (ip), vehicle: water): 115 % of control

CCOC(=O)C1CCc2ccccc2N1 (configuration not stated)
T/C [1]: 99 % of control
T/C [2]: 103 % of control
T/C [3]: 104 % of control

Nc1nc2c(nc(OCc3ccccc3)n2C2OC(CO)C(O)C2O)c(=O)n1N (configuration not stated)
T/C (dose: 60.0 mg/kg/injection, schedule: Q01DX005 (ip), vehicle: saline with Tween-80): 104 % of control
T/C (dose: 120.0 mg/kg/injection, schedule: Q01DX005 (ip), vehicle: saline with Tween-80): 96 % of control
T/C (dose: 240.0 mg/kg/injection, schedule: Q01DX005 (ip), vehicle: saline with Tween-80): 100 % of control

CC1=C(CO)C(=O)OC(C(C)C2CCC3C4CC5OC56C(O)C(N5CC5(C)C)CC(=O)C6(C)C4CCC23C)C1 (configuration not stated)
T/C (dose: 8.75 mg/kg/injection, schedule: Q01DX005 (ip), vehicle: Klucel (hydroxypropylcellulose) (HPC)): 108 % of control
T/C (dose: 17.5 mg/kg/injection, schedule: Q01DX005 (ip), vehicle: Klucel (hydroxypropylcellulose) (HPC)): 99 % of control
T/C (dose: 35.0 mg/kg/injection, schedule: Q01DX005 (ip), vehicle: Klucel (hydroxypropylcellulose) (HPC)): 99 % of control
T/C (dose: 70.0 mg/kg/injection, schedule: Q01DX005 (ip), vehicle: Klucel (hydroxypropylcellulose) (HPC)): 108 % of control
T/C (dose: 140.0 mg/kg/injection, schedule: Q01DX005 (ip), vehicle: Klucel (hydroxypropylcellulose) (HPC)): 105 % of control

CC1OC(n2ccc(NC(=O)c3ccc(NC(=O)C(C)(N)CO)cc3)nc2=O)CCC1OC1OC(C)C(N(C)C)C(O)C1O (configuration not stated)
T/C (dose: 100.0 mg/kg/injection, schedule: Q04DX003 (ip), vehicle: saline with Tween-80): 100 % of control
T/C (dose: 200.0 mg/kg/injection, schedule: Q04DX003 (ip), vehicle: saline with Tween-80): 100 % of control
T/C (dose: 400.0 mg/kg/injection, schedule: Q04DX003 (ip), vehicle: saline with Tween-80): 109 % of control

O=C1c2c(O)cccc2-c2nn(CCNCCO)c3ccc(NCCNCCO)c1c23
T/C (dose: 3.12 mg/kg/injection, schedule: Q04DX002 (ip), vehicle: water): 171 % of control
T/C (dose: 6.25 mg/kg/injection, schedule: Q04DX002 (ip), vehicle: water): 183 % of control
T/C (dose: 12.5 mg/kg/injection, schedule: Q04DX002 (ip), vehicle: water): 228 % of control and 235 % of control
T/C (dose: 25.0 mg/kg/injection, schedule: Q04DX002 (ip), vehicle: water): 184 % of control and 285 % of control and 588 % of control
T/C (dose: 50.0 mg/kg/injection, schedule: Q04DX002 (ip), vehicle: water): 88 % of control
T/C (dose: 100.0 mg/kg/injection, schedule: Q04DX002 (ip), vehicle: water): 190 % of control

CO/C=N/c1cn2c(n1)CN=C2
T/C (dose: 100.0 mg/kg/injection, schedule: Q01DX001 (ip), vehicle: saline): 102 % of control
T/C (dose: 200.0 mg/kg/injection, schedule: Q01DX001 (ip), vehicle: saline): 95 % of control
T/C (dose: 400.0 mg/kg/injection, schedule: Q01DX001 (ip), vehicle: saline): 96 % of control

C=CCNSc1ccccc1
T/C (dose: 12.5 mg/kg/injection, schedule: Q01DX009 (ip), vehicle: Klucel (hydroxypropylcellulose) (HPC)): 112 % of control
T/C (dose: 25.0 mg/kg/injection, schedule: Q01DX009 (ip), vehicle: Klucel (hydroxypropylcellulose) (HPC)): 109 % of control

Cc1cccc(/N=C/c2ccccc2O)n1
T/C (dose: 50.0 mg/kg/injection, schedule: Q01DX009 (ip), vehicle: Klucel (hydroxypropylcellulose) (HPC)): 91 % of control
T/C (dose: 100.0 mg/kg/injection, schedule: Q01DX009 (ip), vehicle: Klucel (hydroxypropylcellulose) (HPC)): 86 % of control

C[Si](C)(C)O[C@@H]1CCCC1NCC#N (some centres not stated)
T/C [1]: 101 % of control
T/C [2]: 101 % of control
T/C [3]: 92 % of control

CN(c1ccccc1)C1CS(=O)(=O)OC2=C1CCCC2 (configuration not stated)
T/C (dose: 50.0 mg/kg/injection, schedule: Q01DX009 (ip), vehicle: saline with Tween-80): 98 % of control
T/C (dose: 100.0 mg/kg/injection, schedule: Q01DX009 (ip), vehicle: saline with Tween-80): 102 % of control
T/C (dose: 200.0 mg/kg/injection, schedule: Q01DX009 (ip), vehicle: saline with Tween-80): 104 % of control

From PubChem BioAssay AID330 (DTP/NCI, 2004)
